Experimental data as given in patent publication US20240382564A1, “Methods and Compositions for Treating Muscular Dystrophy and Memory Impairment” (Allysta Pharmaceuticals, Inc., priority 2023, published 2024).
Entries after “also recorded” stand apart in the source; their conditions may differ. Where no end group is shown, it is not given here. [ ]: non-standard residue; d: D form. Nva = CCC[C@H](N)C(=O)O

Tests used:
Assay type in all cases: in vivo, mouse
[1] = tested on: D2.mdx mice; experiment: Hippocampal high-resolution respirometry; conditions: 15 mg/kg daily; 15 μM ADP
Method: Male D2.mdx mice originated from a colony maintained at York University (Toronto, Canada) and sourced from Jackson Laboratories (Stock Number 013141, Bar Harbor, United States). Mice were treated daily from days 7 to 28 of age with ALY688 at 15 mg/kg b.w. (D2.mdx-ALY688) or saline control (D2.mdx-VEH). This age was chosen given it captures an early stage of disease progression in cardiac and skeletal muscle. Mice were sacrificed 20-24 hr after the last dose. Breeding of wildtype mice was unsuccessful. Instead, three-week-old wildtype DBA/2J WT mice (D2A) were obtained from Jackson Laboratories (Stock number 000671, Bar Harbor, United States) and allowed to acclimatize for one week before sacrifice. Mice were housed in standard 12:12-hr light:dark cycles and were allowed access to standard rodent chow and water ad libitum. 4 days prior to sacrifice, all groups underwent novel object recognition acclimatization and testing as described below. Mice were anesthetized under 5% isoflurane vaporized in medical air (21% oxygen) at a flow rate of 2 L/min and then maintained at 2-3% prior to euthanasia by exsanguination. […]
Mitochondrial oxygen consumption (respiration) was measured using the in situ brain permeabilization. […] Polarographic oxygen measurements were acquired in 2 s intervals with the rate of respiration derived from 40 data points and expressed as pmol/s/mg wet weight. […]

[2] = tested on: D2.mdx mice; experiment: Hippocampal cytokine mRNA by quantitative PCR; conditions: 15 mg/kg daily
Method: Male D2.mdx mice originated from a colony maintained at York University (Toronto, Canada) and sourced from Jackson Laboratories (Stock Number 013141, Bar Harbor, United States). Mice were treated daily from days 7 to 28 of age with ALY688 at 15 mg/kg b.w. (D2.mdx-ALY688) or saline control (D2.mdx-VEH). This age was chosen given it captures an early stage of disease progression in cardiac and skeletal muscle. Mice were sacrificed 20-24 hr after the last dose. Breeding of wildtype mice was unsuccessful. […]
Total RNA was isolated from hippocampus using the Aurum Total RNA Mini Kit (Bio-Rad; Mississauga, ON, Canada) according to manufacturer's instructions, and reverse transcribed into cDNA by M-MLV reverse transcriptase and oligo (dT) primers (Qiagen). cDNA was then amplified in a CFX384 Touch Real-Time PCR Detection Systems (Bio-Rad) with a SYBR Green master mix and specific primers. Gene expression was normalized to a Rplp0 control and relative differences were determined using the ΔΔCt method (Livak, K. J., & Schmittgen, T. D. (2001). Analysis of relative gene expression data using real-time quantitative PCR and the 2(-Delta Delta C(T)) Method. Methods, 25 (4), 402-408. doi: 10.1006/meth.2001.1262), normalized to D2A expression. […]

[3] = tested on: D2.mdx mice; experiment: Serum cytokine profiling (LEGENDplex)
Method: Male D2.mdx mice originated from a colony maintained at York University (Toronto, Canada) and sourced from Jackson Laboratories (Stock Number 013141, Bar Harbor, United States). Mice were treated daily from days 7 to 28 of age with ALY688 at 15 mg/kg b.w. (D2.mdx-ALY688) or saline control (D2.mdx-VEH). This age was chosen given it captures an early stage of disease progression in cardiac and skeletal muscle. Mice were sacrificed 20-24 hr after the last dose. Breeding of wildtype mice was unsuccessful. Instead, three-week-old wildtype DBA/2J WT mice (D2A) were obtained from Jackson Laboratories (Stock number 000671, Bar Harbor, United States) and allowed to acclimatize for one week before sacrifice. Mice were housed in standard 12:12-hr light:dark cycles and were allowed access to standard rodent chow and water ad libitum. 4 days prior to sacrifice, all groups underwent novel object recognition acclimatization and testing as described below. Mice were anesthetized under 5% isoflurane vaporized in medical air (21% oxygen) at a flow rate of 2 L/min and then maintained at 2-3% prior to euthanasia by exsanguination. Muscles were removed and used for another investigation (under review at the time of this submission). The right and left hippocampus were then quickly dissected from the brain with a portion placed immediately into ice-cold BIOPS, containing (in mM): 50 MES Hydrate, 7.23 K2EGTA, 2.77 CaK2EGTA, 20 imidazole, 0.5 dithiothreitol, 20 taurine, 5.77 ATP, 15 PCr, and 6.56 MgCl2·6H2O (pH 7.1) or flash-frozen in liquid nitrogen and stored at −80° C. for RNA isolation and western blotting. All experiments and procedures were approved by the Animal Care Committee at York University (AUP Approval Number 2016-18) in accordance with the Canadian Council on Animal Care.
Protein contents of TGF-β, TNF-α, IL-1β, IL-6 and IL-10 in serum were measured by flow cytometry using LEGENDplex™ Mouse Custom Panel (BioLegend; San Diego, CA, USA). […] The FCS files generated on the flow cytometer were analyzed using the LEGENDplex™ cloud-based analysis software.

Substance: [dN]IP[Nva]LY[dS]FA[dS]-NH2 [ALY688]
- hippocampal pyruvate-supported respiration stimulated by ADP [1]: completely preserved; also recorded: complete restoration
- hippocampal mRNA of IL-6, TNF-α or IL-10 [2]: No significant changes
- serum IL-1β ([3]; relative to D2.mdx-VEH): increased
- serum IL-6 ([3]; vs D2.mdx-VEH): attenuated
- serum IL-10 ([3]; vs wildtype): increasing
